Results taken from patent US12509452B2, “Substituted-isoxazoline-containing aromatic compound, preparation method therefor, herbicidal composition and use thereof” (QINGDAO KINGAGROOT CHEMICAL COMPOUND CO., LTD., priority 2019, dated 2025).

Experiments:
Assay type in all cases: in vivo
Beckmannia syzigachne = test: weeding effect in post-emergence stage
Method in brief: (§1)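 Post-emergence greenhouse pot test: 2-3 leaf weeds sprayed (acetone/Tween 80 formulation plus 1.5 liter/ha methyl oleate EC) at 500, 250, 125, 60, 15, 7.5 g a.i./ha; fresh weight control rate read 3 weeks later, graded 0 (<5%) to 5 (>85%); n=3 averages.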

Alopecurus japonicus = test: weeding effect in post-emergence stage
Method in brief: as §1

Rorippa indica = test: weeding effect in post-emergence stage
Method in brief: as §1

Conyza japonica = test: weeding effect in post-emergence stage
Method in brief: as §1

[1] = test system: Echinochloa crusgalli, Scirpus juncoides and Bidens tripartita L. collected from Heilongjiang Province of China; test: resistance tests of the collected rice field weeds; details: seeds collected from Heilongjiang Province of China
Source text: Note: The seeds of Echinochloa crusgalli, Scirpus juncoides and Bidens tripartita L. were collected from Heilongjiang Province of China.

SMILES	weeding effect in post-emergence stage, Beckmannia syzigachne (activity level) (Beckmannia syzigachne; dose 15 g a.i./ha)	weeding effect in post-emergence stage, Alopecurus japonicus (activity level) (Alopecurus japonicus; dose 15 g a.i./ha)	weeding effect in post-emergence stage, Rorippa indica (activity level) (Rorippa indica; dose 15 g a.i./ha)	weeding effect in post-emergence stage, Conyza japonica (activity level) (Conyza japonica; dose 15 g a.i./ha)	weeding effect in post-emergence stage, Beckmannia syzigachne (activity level) (Beckmannia syzigachne; dose 7.5 g a.i./ha)	weeding effect in post-emergence stage, Alopecurus japonicus (activity level) (Alopecurus japonicus; dose 7.5 g a.i./ha)	weeding effect in post-emergence stage, Rorippa indica (activity level) (Rorippa indica; dose 7.5 g a.i./ha)	weeding effect in post-emergence stage, Conyza japonica (activity level) (Conyza japonica; dose 7.5 g a.i./ha)	response of the weeds to the common doses [1]
CCOC(=O)C1ON=C(c2cc(-n3c(=O)n(C)c(=S)n(C)c3=O)c(F)cc2Cl)C1C (stereo not shown) [Compound 1-98]	5 (Level 5: growth control rate is above 85%)	5 (Level 5: growth control rate is above 85%)	5 (Level 5: growth control rate is above 85%)	5 (Level 5: growth control rate is above 85%)	–	–	–	–	–
CCOC(=O)C1ON=C(c2cc(-n3c(=O)n(C)c(=S)n(C)c3=O)c(F)cc2Cl)C1C(F)(F)F (stereo not shown) [Compound 1-99]	5 (Level 5: growth control rate is above 85%)	5 (Level 5: growth control rate is above 85%)	5 (Level 5: growth control rate is above 85%)	5 (Level 5: growth control rate is above 85%)	–	–	–	–	–
CCOC(=O)C1ON=C(c2cc(-n3c(=O)n(C)c(=S)n(C)c3=O)c(F)cc2Cl)C1C(=O)OCC (stereo not shown) [Compound 1-100]	5 (Level 5: growth control rate is above 85%)	5 (Level 5: growth control rate is above 85%)	5 (Level 5: growth control rate is above 85%)	5 (Level 5: growth control rate is above 85%)	–	–	–	–	–
CCOC(=O)C1(C)ON=C(c2cc(-n3c(=O)n(C)c(=S)n(C)c3=O)c(F)cc2Cl)C1C (stereo not shown) [Compound 1-101]	5 (Level 5: growth control rate is above 85%)	5 (Level 5: growth control rate is above 85%)	5 (Level 5: growth control rate is above 85%)	5 (Level 5: growth control rate is above 85%)	–	–	–	–	–
CCOC(=O)C1(C)CC(c2cc(-n3c(=O)n(C)c(=S)n(C)c3=O)c(F)cc2Cl)=NO1 (stereo not shown) [Control compound A, reference compound]	2 (Level 2: growth control rate is greater than or equal to 20% and less than 40%)	3 (Level 3: growth control rate is greater than or equal to 40% and less than 60%)	2 (Level 2: growth control rate is greater than or equal to 20% and less than 40%)	2 (Level 2: growth control rate is greater than or equal to 20% and less than 40%)	–	–	–	–	–
CCOC(=O)C1(C)CC(c2cc(-n3c(=O)cc(C(F)(F)F)n(C)c3=O)c(F)cc2Cl)=NO1 (stereo not shown) [Control compound B, reference compound]	3 (Level 3: growth control rate is greater than or equal to 40% and less than 60%)	4 (Level 4: growth control rate is greater than or equal to 60% and less than 85%)	3 (Level 3: growth control rate is greater than or equal to 40% and less than 60%)	4 (Level 4: growth control rate is greater than or equal to 60% and less than 85%)	2 (Level 2: growth control rate is greater than or equal to 20% and less than 40%)	3 (Level 3: growth control rate is greater than or equal to 40% and less than 60%)	2 (Level 2: growth control rate is greater than or equal to 20% and less than 40%)	3 (Level 3: growth control rate is greater than or equal to 40% and less than 60%)	–
CCOC(=O)c1cnn(C)c1S(=O)(=O)NC(=O)Nc1nc(OC)cc(OC)n1 [Pyrazosulfuron-ethyl]	–	–	–	–	–	–	–	–	resistant
CCOC(=O)C1(C)CC(c2cc(-n3c(=O)cc(C(F)(F)F)n(C)c3=O)c(F)cc2Cl)=NO1 (stereo not shown) [drawing 745, reference compound]	1 (Level 1: growth control rate is greater than or equal to 5% and less than 20%)	2 (Level 2: growth control rate is greater than or equal to 20% and less than 40%)	1 (Level 1: growth control rate is greater than or equal to 5% and less than 20%)	1 (Level 1: growth control rate is greater than or equal to 5% and less than 20%)	–	–	–	–	–
CCOC(=O)C1(C)CC(c2cc(-n3c(=O)n(C)c(=S)n(C)c3=O)c(F)cc2Cl)=NO1 (stereo not shown) [drawing 746, reference compound]	1 (Level 1: growth control rate is greater than or equal to 5% and less than 20%)	2 (Level 2: growth control rate is greater than or equal to 20% and less than 40%)	1 (Level 1: growth control rate is greater than or equal to 5% and less than 20%)	1 (Level 1: growth control rate is greater than or equal to 5% and less than 20%)	–	–	–	–	–
